According to ChEMBL document CHEMBL1201862, “PubChem BioAssay data set” (2004):
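Five compound concentrations were applied to cells in 96-well plates for 48 hours; endpoints were derived by simple linear interpolation of the resulting dose-response curve. GI50: concentration for 50% inhibition of growth.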 The source made the active and inactive calls. Cut-off read from the data, not from the text of the source: active = GI50 up to about 1.1 µM and inactive = higher.

Experiments:
Experiment in all cases: NCI anticancer screen, dose series, 48 h
[1] = tested on: A549
[2] = tested on: K562
[3] = tested on: KM12
[4] = tested on: MDA-MB-231
[5] = tested on: HOP-62
[6] = tested on: OVCAR-4
[7] = tested on: U-251
[8] = tested on: SK-MEL-28
[9] = tested on: MDA-MB-435
[10] = tested on: M14
[11] = tested on: RPMI-8226
[12] = tested on: IGROV-1
[13] = tested on: MCF7
[14] = tested on: OVCAR-8
[15] = tested on: SW-620
[16] = tested on: UO-31
[17] = tested on: SK-OV-3
[18] = tested on: RXF 393
[19] = tested on: 786-0
[20] = tested on: LOX IMVI
[21] = tested on: Hs-578T
[22] = tested on: HT-29
[23] = tested on: NCI-H460
[24] = tested on: T47D
[25] = tested on: NCI-H23
[26] = tested on: EKVX
[27] = tested on: DU-145
[28] = tested on: HCC 2998
[29] = tested on: NCI/ADR-RES
[30] = tested on: MDA-N
[31] = tested on: SK-MEL-2
[32] = tested on: NCI-H226
[33] = tested on: HCT-116
[34] = tested on: HOP-92
[35] = tested on: SNB-75
[36] = tested on: UACC-257
[37] = tested on: BT-549
[38] = tested on: CCRF-CEM
[39] = tested on: TK-10
[40] = tested on: ACHN
[41] = tested on: SF-295
[42] = tested on: SR
[43] = tested on: NCI-H522
[44] = tested on: UACC-62
[45] = tested on: A498
[46] = tested on: Malme-3M
[47] = tested on: MOLT-4
[48] = tested on: CAKI-1
[49] = tested on: SF-268
[50] = tested on: OVCAR-3
[51] = tested on: OVCAR-5
[52] = tested on: HCT-15
[53] = tested on: SK-MEL-5
[54] = tested on: SN12C
[55] = tested on: SNB-19
[56] = tested on: HL-60
[57] = tested on: COLO 205
[58] = tested on: PC-3
[59] = tested on: SF-539

## COC(=O)c1ccc(NC(=O)O/N=C(\Cl)C(C)C)cc1
[1]
  GI50: 19.5 µM (inactive)
[2]
  GI50: 1.3 µM (inactive)
[3]
  GI50: 15.1 µM (inactive)
[4]
  GI50: 7.08 µM (inactive)
[5]
  GI50: 18.7 µM (inactive)
[6]
  GI50: 18.1 µM (inactive)
[7]
  GI50: 16.6 µM (inactive)
[8]
  GI50: 4.84 µM (inactive)
[9]
  GI50: 11.3 µM (inactive)
[10]
  GI50: 2.99 µM (inactive)
[11]
  GI50: 1.83 µM (inactive)
[12]
  GI50: 13.9 µM (inactive)
[13]
  GI50: 5.7 µM (inactive)
[14]
  GI50: 14 µM (inactive)
[15]
  GI50: 1.93 µM (inactive)
[16]
  GI50: 15.4 µM (inactive)
[17]
  GI50: 17.8 µM (inactive)
[18]
  GI50: 6.21 µM (inactive)
[19]
  GI50: 2.03 µM (inactive)
[20]
  GI50: 1.74 µM (inactive)
[21]
  GI50: 10.8 µM (inactive)
[22]
  GI50: 4.31 µM (inactive)
[23]
  GI50: 20.9 µM (inactive)
[24]
  GI50: 2 µM (inactive)
[25]
  GI50: 17.1 µM (inactive)
[26]
  GI50: 3.22 µM (inactive)
[27]
  GI50: 18.5 µM (inactive)
[28]
  GI50: 14.7 µM (inactive)
[29]
  GI50: 5.71 µM (inactive)
[30]
  GI50: 8.89 µM (inactive)
[31]
  GI50: 16.8 µM (inactive)
[32]
  GI50: 18.9 µM (inactive)
[33]
  GI50: 5.61 µM (inactive)
[34]
  GI50: 1.81 µM (inactive)
[35]
  GI50: 7.78 µM (inactive)
[36]
  GI50: 15.2 µM (inactive)
[37]
  GI50: 2.67 µM (inactive)
[38]
  GI50: 466 nM (active)
[39]
  GI50: 3.05 µM (inactive)
[40]
  GI50: 1.74 µM (inactive)
[41]
  GI50: 17.7 µM (inactive)
[42]
  GI50: 1.18 µM (inactive)
[43]
  GI50: 320 nM (active)
[44]
  GI50: 13.1 µM (inactive)
[45]
  GI50: 18.4 µM (inactive)
[46]
  GI50: 1.56 µM (inactive)
[47]
  GI50: 1.79 µM (inactive)
[48]
  GI50: 1.69 µM (inactive)
[49]
  GI50: 26.2 µM (inactive)
[50]
  GI50: 1.97 µM (inactive)
[51]
  GI50: 17.1 µM (inactive)
[52]
  GI50: 1.83 µM
[53]
  GI50: 4.53 µM (inactive)
[54]
  GI50: 6.19 µM (inactive)
[55]
  GI50: 16.9 µM (inactive)
[56]
  GI50: 1.36 µM (inactive)
[57]
  GI50: 1.94 µM (inactive)
[58]
  GI50: 17.3 µM (inactive)

## COCN1C(N)=C(C(=O)OC(C)(C)C)C2=CC(=O)C=CC21C (stereo unspecified)
[1]
  GI50: 18.9 µM (inactive)
[2]
  GI50: 4.92 µM (inactive)
[3]
  GI50: 16.6 µM (inactive)
[4]
  GI50: 15.3 µM (inactive)
[5]
  GI50: 28.4 µM (inactive)
[6]
  GI50: 13.6 µM (inactive)
[7]
  GI50: 17 µM (inactive)
[8]
  GI50: 20.3 µM (inactive)
[9]
  GI50: 13.2 µM (inactive)
[10]
  GI50: 15.8 µM (inactive)
[11]
  GI50: 20.4 µM (inactive)
[12]
  GI50: 13.1 µM (inactive)
[13]
  GI50: 11 µM (inactive)
[14]
  GI50: 18 µM (inactive)
[15]
  GI50: 4.99 µM (inactive)
[16]
  GI50: 13.6 µM (inactive)
[17]
  GI50: 34.6 µM (inactive)
[18]
  GI50: 6.25 µM (inactive)
[19]
  GI50: 11.9 µM (inactive)
[20]
  GI50: 13.6 µM (inactive)
[21]
  GI50: 15.2 µM (inactive)
[22]
  GI50: 6.64 µM (inactive)
[23]
  GI50: 18.4 µM (inactive)
[24]
  GI50: 2.59 µM (inactive)
[25]
  GI50: 15.4 µM (inactive)
[26]
  GI50: 16.5 µM (inactive)
[27]
  GI50: 11.9 µM (inactive)
[28]
  GI50: 22.6 µM (inactive)
[29]
  GI50: 25.2 µM (inactive)
[30]
  GI50: 16.1 µM (inactive)
[31]
  GI50: 17.3 µM (inactive)
[32]
  GI50: 16.8 µM (inactive)
[33]
  GI50: 7.83 µM (inactive)
[34]
  GI50: 5.14 µM (inactive)
[35]
  GI50: 19.1 µM (inactive)
[36]
  GI50: 10.6 µM (inactive)
[37]
  GI50: 4.24 µM (inactive)
[38]
  GI50: 3660 nM (inactive)
[39]
  GI50: 13.4 µM (inactive)
[40]
  GI50: 7.01 µM (inactive)
[41]
  GI50: 43.6 µM (inactive)
[42]
  GI50: 12.5 µM (inactive)
[43]
  GI50: 3400 nM (inactive)
[44]
  GI50: 15.6 µM (inactive)
[45]
  GI50: 20.1 µM (inactive)
[46]
  GI50: 9.75 µM (inactive)
[47]
  GI50: 3.7 µM (inactive)
[48]
  GI50: 15.2 µM (inactive)
[59]
  GI50: 17.4 µM (inactive)
[49]
  GI50: 15.8 µM (inactive)
[51]
  GI50: 18.1 µM (inactive)
[52]
  GI50: 13.9 µM
[53]
  GI50: 15.3 µM (inactive)
[54]
  GI50: 25.8 µM (inactive)
[55]
  GI50: > 100 µM (inactive)
[56]
  GI50: 14.4 µM (inactive)
[57]
  GI50: 5.01 µM (inactive)
[58]
  GI50: 16.9 µM (inactive)
